Several values for one entry are separate records, joined by “and”; a condition that tells them apart may be missing. Equal values may be shown once.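 Where inhibition never reached the appropriate level, the endpoint shown equals the highest concentration tested. Otherwise, values were interpolated linearly from a five-concentration, 48-hour dose response in 96-well plates. GI50 = concentration required for 50% inhibition of growth. TGI: concentration producing complete growth inhibition.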
Tests used:
Assay in all cases: growth of human tumour cells (NCI), 48 h
[1] = system: MOLT-4 leukemia
[2] = system: SNB-19 CNS
[3] = system: CAKI-1 renal
[4] = system: SK-MEL-2 melanoma
[5] = system: COLO 205 colon
[6] = system: HOP-92 NSCLC
[7] = system: UACC-62 melanoma
[8] = system: HT29 colon
[9] = system: SF-539 CNS
[10] = system: MDA-MB-435

SMILES	GI50 [1]	TGI [1]	GI50 [2]	TGI [2]	GI50 [3]	TGI [3]	GI50 [4]	TGI [4]	GI50 [5]	TGI [5]	GI50 [6]	TGI [6]	GI50 [7]	TGI [7]	GI50 [8]	TGI [8]	GI50 [9]	TGI [9]	GI50 [10]	TGI [10]
COc1ccc(-c2nc3sccn3c2-c2ccnc(NCCCNS(=O)(=O)c3ccc(F)cc3)n2)cc1	1.9 µM	7.67 µM	4.43 µM	> 100 µM	2.5 µM	7.29 µM	2.32 µM	6.75 µM	1.89 µM	8.15 µM	1.75 µM	> 100 µM	0.752 µM	2.73 µM	2.16 µM	> 100 µM	2.91 µM	8.67 µM	2 µM	6.51 µM
CNc1ncc2cc(-c3cc(NC(=O)NCCC(C)(C)C)c(F)cc3C)c(C)nc2n1	0.688 µM and > 2.45 µM	> 69.7 µM	2.23 µM and 1.55 µM	> 100 µM	0.437 µM and 0.2 µM	> 100 µM	0.0277 µM and 0.0426 µM	0.143 µM and 0.265 µM	< 0.0133 µM and 0.0135 µM	1.38 µM and > 4.3 µM	0.0571 µM and 0.0903 µM	0.423 µM and 0.511 µM	< 0.01 µM and 0.00585 µM	0.0881 µM and 0.121 µM	0.0177 µM and 0.0194 µM	> 41.5 µM	0.526 µM and 1.05 µM	9.49 µM and > 10 µM	0.0299 µM and 0.0389 µM	> 39.4 µM
O=C1C(Br)=CC2(C=C1Br)CCNc1c(O)c3c4c(c12)=NCCC=4C=N3	–	0.11 µM	–	3.97 µM	–	0.309 µM	–	0.428 µM	–	0.0289 µM	–	0.185 µM	–	0.233 µM	–	0.168 µM	–	0.557 µM	–	0.245 µM
COc1cc2c(cc1O)C1CC(CC3CCCCN31)OC(=O)/C=C\c1ccc(O)c-2c1 (stereo not drawn)	–	60.2 µM	–	> 100 µM	–	66.4 µM	–	72.1 µM	–	83.1 µM	–	97.9 µM	–	45.2 µM	–	50.4 µM	–	34.6 µM	–	50.8 µM
Cc1cc(C#Cc2ccccc2)ccc1-n1c(/C=C/c2cc(O)ccc2O)nc2ccccc2c1=O	1.14 µM	3.97 µM	1.62 µM	3.18 µM	2.15 µM	7.24 µM	1.4 µM	3.05 µM	1.48 µM	2.8 µM	1.54 µM	4.33 µM	1.52 µM	2.86 µM	1.97 µM	4.19 µM	1.6 µM	3.44 µM	1.67 µM	3.53 µM
CC12CC(=O)C3C(CCC4=CC(=O)CCC43C)C1CC=C2CC(=O)O (stereo not drawn)	–	> 100 µM	–	> 100 µM	–	> 100 µM	–	> 100 µM	–	> 100 µM	–	> 100 µM	–	> 100 µM	–	> 100 µM	–	> 100 µM	–	> 100 µM
O=C1NC(=O)C(c2c[nH]c3ccccc23)=C1c1ccccc1	> 25 µM	> 25 µM	> 25 µM	> 25 µM	> 25 µM	> 25 µM	> 25 µM	> 25 µM	> 25 µM	> 25 µM	> 25 µM	> 25 µM	> 25 µM	> 25 µM	> 25 µM	> 25 µM	> 25 µM	> 25 µM	> 25 µM	> 25 µM
O=c1[nH]c(SCc2ccccc2[N+](=O)[O-])nc2nc[nH]c12	–	> 100 µM	–	> 100 µM	–	> 100 µM	–	> 100 µM	–	> 100 µM	–	> 100 µM	–	> 100 µM	–	> 100 µM	–	> 100 µM	–	> 100 µM
O=C1/C(=C/c2ccccc2[N+](=O)[O-])COc2ccc(O)c(O)c21	0.431 µM	> 21.8 µM	2.45 µM	9.53 µM	0.607 µM	1.99 µM	2.18 µM	5.99 µM	0.71 µM	2.57 µM	1.1 µM	2.9 µM	0.864 µM	2.4 µM	0.529 µM	3.35 µM	1.21 µM	2.99 µM	0.691 µM	2.38 µM
c1cc2c(c(NC3=NCCN3)c1)CCCC2	–	> 100 µM	–	> 100 µM	–	> 100 µM	–	> 100 µM	–	> 100 µM	–	> 100 µM	–	> 100 µM	–	> 100 µM	–	> 100 µM	–	> 100 µM
O=C(c1ccco1)c1c(C(F)(F)F)n([O-])c2ccc(F)cc2[n+]1=O	0.219 µM	0.54 µM	1.06 µM	2.41 µM	1.6 µM	3.26 µM	0.91 µM	2.47 µM	0.524 µM	1.36 µM	0.802 µM	2.55 µM	1.21 µM	2.55 µM	–	–	2.55 µM	8.32 µM	1.3 µM	2.75 µM
COc1ccc(/C=C2\CCC(Cc3ccccc3)(CN(C)C)C2=O)cc1 (stereo not drawn)	–	> 81.2 µM	–	> 100 µM	–	> 100 µM	–	> 100 µM	–	> 74.8 µM	–	> 100 µM	–	> 76.9 µM	–	> 87.8 µM	–	> 100 µM	–	> 100 µM

— PubChem BioAssay (NCI)
